Measured values from patent US10780094B2, “Use of carbonic anhydrase inhibitors for treatment of neurological and psychiatric disorders” (New York University, priority 2016, dated 2020).

Columns and labels:
Type in all cases: cell-based, human
[1] = system: Glioma cells; assay: Aβ-induced mitochondrial Cytochrome C release
Description: (§1) Both SH-SY5Y cells and Glioma cells were plated on glass chamber slides (Thermo Fisher Scientific, Rochester, N.Y.). Slides were pre-coated with poly-D-lysine for SH-SY5Y cells. After seeding, cells were allowed to attach for 1 day prior to treatment with Aβ in the presence or absence of MTZ for 24 hours. Cells were then washed with PBS, fixed with 4% paraformaldehyde (10 min, RT) and blocked for 1 hour with 20 mg/ml BSA in PBS containing 0.3% Triton X-100 (PBST). Slides were further incubated with mouse monoclonal anti-CytC antibody (BD Biosciences; 1:200 in PBST containing 5 mg/ml BSA; 2 h, RT) followed by Alexa Fluor 488-conjugated anti-mouse IgG (Life Technologies, Grand Island, N.Y.) 1:200 in PBST with 5 mg/ml BSA for 1 h at RT, as previously described (Fossati et al., 2013). Fluorescence signals were visualized in a Zeiss LSM 510 laser scanning confocal/Confocor2 microscope using a 40×DIC oil immersion objective and LSM 510 software; acquired images were imported into ImageJ (National Institute of Health; http://rsbweb.nih.gov/ij/).
(§2) Subcellular distribution of CytC in amyloid-challenged SH-SY5Y and glioma cells was determined in mitochondrial and cytoplasmic protein extracts prepared using Mitochondria Isolation Kit (MITOISO2, Sigma) following the manufacturer's specifications. Briefly, after amyloid challenge in the presence and absence of Methazolamide, as above, cells were collected by trypsinization, resuspended in 10 mM HEPES, pH 7.5, containing 200 mM mannitol, 70 mM sucrose, 1 mM EGTA added of Protease Inhibitor Cocktail, and homogenized with the aid of a Dounce glass homogenizer. Cell homogenates were centrifuged to remove unbroken cells and nuclei (600×g, 5 min, 4° C.) and supernatants further centrifuged at 11,000×g (5 min, 4° C.) to subfractionate mitochondria. Supernatants, representing the cytosolic fractions as well as mitochondrial fractions were analyzed by CytC ELISA and WB.
(§3) The concentration of CytC in cytosolic and mitochondrial fractions was quantitated by solid phase sandwich ELISA (Quantikine ELISA, human Cytochrome C Immunoassay, R&D Systems) as described by the manufacturer. Prior to the assay, fractions containing cytoplasmic proteins were concentrated on Vivaspin 500 centrifugal concentrators (GE HealthCare, molecular weight cut off 5000), mitochondrial pellets were resuspended in Cell Lysis Buffer provided with the kit, and total protein of the respective fractions was evaluated by BCA protein assay (Thermo Fisher Scientific/Pierce). […] After washing away unbound proteins, wells were further incubated with an HRP-linked monoclonal antibody anti-human CytC, color developed with tetramethylbenzinine peroxidase substrate, and evaluated through quantitation of the Absorbance at 450 nm. […]

[2] = system: SH-SY5Y cells; assay: Aβ-induced mitochondrial Cytochrome C release
Description: as §1, §2, §3

[3] = system: caspase 9 in glial cells; assay: Caspase-Glo 9 activity after Aβ challenge
Description: Caspase 9 and caspase 3/7 activation was measured by luminescent assays (Caspase-Glo 9 and caspase-Glo 3/7, Promega, Madison, Wis.), in cells treated with the Aβ peptides in DMEM without FBS. Briefly, 10,000 cells/well were plated in 96 wells plates and incubated for 24 hours with the freshly solubilized Aβ peptides. Caspase-Glo reagent was added to the cell cultures resulting in cell lysis, followed by caspase cleavage of the substrate and generation of a luminescent signal produced by the luciferase reaction. After 40 minutes incubation, the amount of caspase activity was evaluated in a plate-reading luminometer (Synergy HT Multi-Mode Microplate Reader, Biotek, Winooski, Vt.) as described in (Fossati et al., 2012b). To inhibit non-specific background activity, the proteasome inhibitor MG-132 was added to the Caspase-Glo reagent before the experiment as indicated by the manufacturer. In all cases results are expressed as fold-change compared to untreated control cells.

[4] = system: mitochondria isolated from glial cells; assay: Mitochondrial H2O2 production (Amplex Red) after Aβ challenge
Description: Production of H2O2 from isolated mitochondria was measured using Amplex Red Hydrogen Peroxide/Peroxidase Assay (Life Technologies). Cells were treated with Aβ peptides, in the presence or absence of MTZ. After 16 hours of treatment, the mitochondrial fraction was separated from nuclear and cytoplasmic fractions as previously described (Fossati et al., 2013). Protein concentration in the mitochondrial fraction was measured by BCA assay (Thermo Scientific, Rockford, Ill.), in order to include the same amount of mitochondria in each sample. Functional mitochondrial fractions were distributed in a 96 well plate with Reaction Buffer and Amplex Red solution following the manufacturer's specifications. The plate was incubated in the dark at room temperature for 30 minutes before colorimetric evaluation of the Amplex Red reaction at 560 nm.

[5] = 100 μM MTZ together with Aβ42 10 μM, 24 hours
[6] = MTZ 100 and 300 μM, Aβ42 10 μM, 24 h

Q: Which results are given for `CC(=O)/N=c1/sc(S(N)(=O)=O)nn1C` [MTZ, methazolamide]?
A: release of CytC (immunocytochemistry) [1, 5]: prevented; release of CytC by ELISA and Western blot in mitochondrial and cytosolic fractions [1, 6]: inhibition; release of CytC (immunocytochemistry) [2, 5]: prevented; release of CytC by ELISA and Western blot in mitochondrial and cytosolic fractions [2, 6]: inhibition; caspase 9 over-activation ([3]; 100 or 300 μM MTZ, 10 μM Aβ42, 24 hours): significantly reduced; caspase 9 activity, drug alone ([3]; MTZ alone in absence of Aβ): did not have any effect; Aβ-induced increase in H2O2 production by isolated mitochondria ([4]; Example 1, Aβ with MTZ): completely reverted; H2O2 production, drug alone ([4]; MTZ alone, untreated cells): did not have any effect
